Laboratory results published in patent US20120004244A1, “Bis Aromatic Compounds for Use as LTC4 Synthase Inhibitors” (BIOLIPOX AB, priority 2009, published 2012).

target: T1, Recombinant human LTC4 synthase (Homo sapiens, UniProt Q16873); assay: LTC4 synthase in vitro assay (LTA4 to LTC4, HTRF detection); type: biochemical; settings: not given
T1 construct: made in house; host or cells: Pichia pastoris ('Piccia pastoralis' [sic])
T1 sequence (Q16873 1-150): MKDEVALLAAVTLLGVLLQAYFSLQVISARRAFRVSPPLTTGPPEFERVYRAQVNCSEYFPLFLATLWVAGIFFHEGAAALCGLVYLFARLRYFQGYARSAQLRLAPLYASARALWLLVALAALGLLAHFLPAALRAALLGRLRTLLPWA
Summary of the method: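 Purified recombinant human LTC4 synthase expressed in Pichia (0.5 μg/mL total protein) was preincubated with inhibitor at 10 μM final for 10 min at room temperature in PBS pH 7.4 with 5 mM GSH. LTA4 was then added at 2.5 μM final, and after 5 min at room temperature LTC4 was detected by HTRF.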

SMILES | IC50 [nM]
COc1ccc(OC)c(C(=O)Nc2ccc(C(=O)c3ccc(N(C)c4ccc(Cl)cc4)cn3)cc2C(=O)O)c1 [3:21, 5-{5-[(4-Chlorophenyl)(methyl)amino]picolinoyl}-2-(2,5-dimethoxybenzamido)-benzoic acid] | 25
COc1ccc(C(=O)Nc2ccc(C(=O)c3ccc(N(CC4CC4)c4ccc(Cl)cc4)cn3)cc2C(=O)O)c(OC)c1 [3:22, 5-{5-[(4-Chlorophenyl)(cyclopropylmethyl)amino]picolinoyl}-2-(2,4-dimethoxy-benzamido)benzoic acid] | 16
COc1cccc(C(=O)Nc2ccc(C(=O)c3ccc(N(CC4CC4)c4ccc(Cl)cc4)cn3)cc2C(=O)O)c1 [3:23, 5-{5-[(4-Chlorophenyl)(cyclopropylmethyl)amino]picolinoyl}-2-(3-methoxy-benzamido)benzoic acid] | 33
O=C(Nc1ccc(C(=O)c2ccc(N(CC3CC3)c3ccc(Cl)cc3)cn2)cc1C(=O)O)c1ccc2c(c1)OC(F)(F)O2 [3:24, 5-{5-[(4-Chlorophenyl)(cyclopropylmethyl)amino]picolinoyl}-2-[3,4-(difluoromethylenedioxy)benzamido]benzoic acid] | 16
O=C(Nc1ccc(C(=O)c2ccc(N(CC3CC3)c3ccc(Cl)cc3)cn2)cc1C(=O)O)c1ccc2c(c1)OCCO2 [3:25, 5-{5-[(4-Chlorophenyl)(cyclopropylmethyl)amino]picolinoyl}-2-(3,4-ethylene-dioxybenzamido)benzoic acid] | 11
COc1ccc(C(=O)Nc2ccc(C(=O)c3ccc(N(C)c4ccc(Cl)cc4)cn3)cc2C(=O)O)cc1OC [3:26, 5-{5-[(4-Chlorophenyl)(methyl)amino]picolinoyl}-2-(3,4-dimethoxybenzamido)-benzoic acid] | 37
COc1cccc(C(=O)Nc2ccc(C(=O)c3ccc(N(C)c4ccc(Cl)cc4)cn3)cc2C(=O)O)c1OC [3:27, 5-{5-[(4-Chlorophenyl)(methyl)amino]picolinoyl}-2-(2,3-dimethoxybenzamido)-benzoic acid] | 40
CN(c1ccc(Cl)cc1)c1ccc(C(=O)c2ccc(NC(=O)c3cccc4c3OCO4)c(C(=O)O)c2)nc1 [3:28, 5-{5-[(4-Chlorophenyl)(methyl)amino]picolinoyl}-2-(2,3-methylenedioxy-benzamido)benzoic acid] | 50
COc1cc(OC)cc(C(=O)Nc2ccc(C(=O)c3ccc(N(C)c4ccc(Cl)cc4)cn3)cc2C(=O)O)c1 [3:29, 5-{5-[(4-Chlorophenyl)(methyl)amino]picolinoyl}-2-(3,5-dimethoxybenzamido)-benzoic acid] | 12
COc1cccc(F)c1C(=O)Nc1ccc(C(=O)c2ccc(N(C)c3ccc(Cl)cc3)cn2)cc1C(=O)O [3:30, 5-{5-[(4-Chlorophenyl)(methyl)amino]picolinoyl}-2-(2-fluoro-6-methoxybenz-amido)benzoic acid] | 26
COc1c(F)c(F)cc(C(=O)Nc2ccc(C(=O)c3ccc(N(C)c4ccc(Cl)cc4)cn3)cc2C(=O)O)c1F [3:31, 5-{5-[(4-Chlorophenyl)(methyl)amino]picolinoyl}-2-(2,4,5-trifluoro-3-methoxy-benzamido)benzoic acid] | 61
COc1ccc(C(=O)Nc2ccc(C(=O)c3ccc(N(C)c4ccc(Cl)cc4)cn3)cc2C(=O)O)c(C)c1 [3:32, 5-{5-[(4-Chlorophenyl)(methyl)amino]picolinoyl}-2-(4-methoxy-2-methylbenz-amido)benzoic acid] | 42
COc1cccc(C(=O)Nc2ccc(C(=O)c3ccc(N(C)c4ccccc4)cn3)cc2C(=O)O)c1 [3:33, 2-(3-Methoxybenzamido)-5-{5-[(methyl)(phenyl)amino]picolinoyl}benzoic acid] | 226
COc1ccc(C(=O)Nc2ccc(C(=O)c3ccc(N(C)c4ccccc4)cn3)cc2C(=O)O)c(OC)c1 [3:34, 2-(2,4-Dimethoxybenzamido)-5-{5-[(methyl)(phenyl)amino]picolinoyl}benzoic acid] | 163
COc1cc(F)c(C(=O)Nc2ccc(C(=O)c3ccc(N(C)c4ccc(Cl)cc4)cn3)cc2C(=O)O)c(F)c1 [3:35, 5-{5-[(4-Chlorophenyl)(methyl)amino]picolinoyl}-2-(2,6-difluoro-4-methoxy-benzamido)benzoic acid] | 73
COc1ccc(C(=O)Nc2ccc(C(=O)c3ccc(N(C)c4ccc(Cl)cc4)cn3)cc2C(=O)O)c(Cl)c1OC [3:36, 2-(2-Chloro-3,4-dimethoxybenzamido)-5-{5-[(4-chlorophenyl)(methyl)amino]-picolinoyl}benzoic acid] | 39
COc1cccc(C(=O)Nc2ccc(C(=O)c3ccc(N(C)Cc4ccc(Cl)cc4)cn3)cc2C(=O)O)c1 [3:37, 5-{5-[(4-Chlorobenzyl)(methyl)amino]picolinoyl}-2-(3-methoxybenzamido)-benzoic acid] | 21
CN(c1ccc(Cl)cc1)c1ccc(C(=O)c2ccc(NC(=O)c3cccc(Br)c3)c(C(=O)O)c2)nc1 [3:38, 2-(3-Bromobenzamido)-5-{5-[(4-chlorophenyl)(methyl)amino]picolinoyl}benzoic acid] | 68

SMILES | IC50 [nM]
CN(c1ccc(Cl)cc1)c1ccc(C(=O)c2ccc(NC(=O)c3cccc(C(F)(F)F)c3)c(C(=O)O)c2)nc1 [3:39, 5-{5-[(4-chlorophenyl)(methyl)amino]picolinoyl}-2-(3-trifluoromethylbenzamido)-benzoic acid] | 91
CN(c1ccc(Cl)cc1)c1ccc(C(=O)c2ccc(NS(=O)(=O)c3ccccc3)c(C(=O)O)c2)nc1 [4:1, 5-{5-[(4-Chlorophenyl)(methyl)amino]picolinoyl}-2-(phenylsulfonamido)benzoic acid] | 39
CCCCOc1ccc(S(=O)(=O)Nc2ccc(C(=O)c3ccc(N(C)c4ccc(Cl)cc4)cn3)cc2C(=O)O)cc1 [4:2, 2-(4-Butoxyphenylsulfonamido)-5-{5-[(4-chlorophenyl)(methyl)amino]picolinoyl}-benzoic acid] | 23
CN(c1ccc(Cl)cc1)c1ccc(C(=O)c2ccc(NS(=O)(=O)c3cccs3)c(C(=O)O)c2)nc1 [4:3, 5-{5-[(4-Chlorophenyl)(methyl)amino]picolinoyl}-2-(2-thienylsulfonamido)benzoic acid] | 40
CN(c1ccc(Cl)cc1)c1ccc(C(=O)c2ccc(NS(=O)(=O)c3ccc(C(F)(F)F)cc3)c(C(=O)O)c2)nc1 [4:4, 5-{5-[(4-Chlorophenyl)(methyl)amino]picolinoyl}-2-(4-trifluoromethylphenylsulfon-amido)benzoic acid] | 43
CN(c1ccc(Cl)cc1)c1ccc(C(=O)c2ccc(NS(=O)(=O)c3ccc(Cl)cc3)c(C(=O)O)c2)nc1 [4:5, 5-{5-[(4-Chlorophenyl)(methyl)amino]picolinoyl}-2-(4-chlorophenylsulfonamido)-benzoic acid] | 33
O=C(c1ccc(NS(=O)(=O)c2ccc(Cl)cc2)c(C(=O)O)c1)c1ccc(N(CC2CC2)c2ccc(Cl)cc2)cn1 [4:6, 2-(4-Chlorophenylsulfonamido)-5-{5-[(4-chlorophenyl)(cyclopropylmethyl)-amino]picolinoyl}benzoic acid] | 17
CN(c1ccc(Cl)cc1)c1ccc(C(=O)c2ccc(C(=O)c3ccccc3)c(C(=O)O)c2)nc1 [5:1, 2-Benzoyl-5-{5-[(4-chlorophenyl)(methyl)amino]picolinoyl}benzoic acid] | 72
CN(c1ccc(C(F)(F)F)cc1)c1ccc(C(=O)c2ccc(C(=O)c3ccccc3)c(C(=O)O)c2)nc1 [5:2, 2-Benzoyl-5-{5-[(methyl)(4-trifluoromethylphenyl)amino]picolinoyl}benzoic acid] | 78
COc1ccc(C(=O)c2ccc(C(=O)c3ccc(N(C)c4ccc(Cl)cc4)cn3)cc2C(=O)O)cc1 [5:3, 5-{5-[(4-Chlorophenyl)(methyl)amino]picolinoyl}-2-(4-methoxybenzoyl)benzoic acid] | 50
COc1ccc(C(=O)c2ccc(C(=O)c3ccc(N(CC4CC4)c4ccc(Cl)cc4)cn3)cc2C(=O)O)cc1 [5:4] | 29
COc1ccc(C(=O)c2ccc(C(=O)c3ccc(N(CC4CC4)c4ccc(Cl)cc4F)cn3)cc2C(=O)O)cc1 [5:5] | 46
COc1ccc(C(=O)c2ccc(C(=O)c3ccc(N(CC(F)(F)F)c4ccc(Cl)cc4F)cn3)cc2C(=O)O)cc1 [5:6, 5-{5-[(4-Chloro-2-fluorophenyl)(2,2,2-trifluoroethyl)amino]picolinoyl}-2-(4-methoxybenzoyl)benzoic acid] | 401
COc1cccc(C(=O)c2ccc(C(=O)c3ccc(N(C)c4ccc(Cl)cc4)cn3)cc2C(=O)O)c1 [5:7, 5-{5-[(4-Chlorophenyl)(methyl)amino]picolinoyl}-2-(3-methoxybenzoyl)benzoic acid] | 36
COc1ccccc1C(=O)c1ccc(C(=O)c2ccc(N(C)c3ccc(Cl)cc3)cn2)cc1C(=O)O [5:8, 5-{5-[(4-Chlorophenyl)(methyl)amino]picolinoyl}-2-(2-methoxybenzoyl)benzoic acid] | 154
CCOc1ccc(C(=O)c2ccc(C(=O)c3ccc(N(C)c4ccc(Cl)cc4)cn3)cc2C(=O)O)cc1 [5:9, 5-{5-[(4-Chlorophenyl)(methyl)amino]picolinoyl}-2-(4-ethoxybenzoyl)benzoic acid] | 101
COc1ccc(C(=O)c2ccc(C(=O)c3ccc(N(C)c4ccc(Cl)cc4)cn3)cc2C(=O)O)c(OC)c1 [5:10, 5-{5-[(4-Chlorophenyl)(methyl)amino]picolinoyl}-2-(2,4-dimethoxybenzoyl)-benzoic acid] | 68
CN(c1ccc(Cl)cc1)c1ccc(C(=O)c2ccc(C(=O)c3ccc(C(F)(F)F)cc3)c(C(=O)O)c2)nc1 [5:11] | 216

same assay, conditions: 5 min; total concentration of title compound in the assay 10 μM

SMILES | inhibition at 10 µM [%]
CN(c1ccc(Cl)cc1)c1ccc(C(=O)c2ccc(NS(=O)(=O)c3cccs3)c(C(=O)O)c2)nc1 [4:3, 5-{5-[(4-Chlorophenyl)(methyl)amino]picolinoyl}-2-(2-thienylsulfonamido)benzoic acid] | 99
CN(c1ccc(Cl)cc1)c1ccc(C(=O)c2ccc(NS(=O)(=O)c3ccc(C(F)(F)F)cc3)c(C(=O)O)c2)nc1 [4:4, 5-{5-[(4-Chlorophenyl)(methyl)amino]picolinoyl}-2-(4-trifluoromethylphenylsulfon-amido)benzoic acid] | 100
CN(c1ccc(Cl)cc1)c1ccc(C(=O)c2ccc(NS(=O)(=O)c3ccc(Cl)cc3)c(C(=O)O)c2)nc1 [4:5, 5-{5-[(4-Chlorophenyl)(methyl)amino]picolinoyl}-2-(4-chlorophenylsulfonamido)-benzoic acid] | 100

same assay, conditions: compound concentration 3 μM

SMILES | inhibition at 3 µM [%]
CN(c1ccc(Cl)cc1)c1ccc(C(=O)c2ccc(NS(=O)(=O)c3ccccc3)c(C(=O)O)c2)nc1 [4:1, 5-{5-[(4-Chlorophenyl)(methyl)amino]picolinoyl}-2-(phenylsulfonamido)benzoic acid] | 100
CCCCOc1ccc(S(=O)(=O)Nc2ccc(C(=O)c3ccc(N(C)c4ccc(Cl)cc4)cn3)cc2C(=O)O)cc1 [4:2, 2-(4-Butoxyphenylsulfonamido)-5-{5-[(4-chlorophenyl)(methyl)amino]picolinoyl}-benzoic acid] | 100
